≈ marks a conversion by molar mass, not a printed value.
Legend:
[1] = test system: Candida albicans ATCC 32033; assay: In vitro assay for antifungal activity (MIC90); format: cell-based; settings: duplicate; for MIC90: ATCC32033, RPMI 1640, growth read after 24 hours, read-out: MIC90 (concentration at which 90% of the fungi were inhibited compared to the negative control); for MIC90 (concentration at which 90% of the fungi were inhibited compared to the negative control): RPMI 1640, growth read after 24 hours
Description: (§1) Fungal strains to be tested were inoculated onto Sabouraud dextrose agar, YM agar, and potato dextrose agar and cultured at 35° C. for two to three days. Individual single colonies of the yeast fungi selected out of the cultured strains were suspended in 5 ml of 0.85% sterile saline, followed by correction to adjust the absorbance thereof at 530 nm to 0.108. The suspensions were diluted serially by 1:50 and then 1:20 in RPMI 1640 media to prepare liquid inocula ranging in cell count from 1.0×10^3 to 5.0×10^3 CFU/ml. As for filamentous fungi, their spores were suspended in 0.85% sterile saline and the suspensions were corrected with sterile saline to show optical transmittance at 530 nm of 80 to 82%. A dilution of 1:50 was made with RPMI 1640 media to prepare liquid inocula having cell counts from […] to 5×10^4 CFU/ml.
(§2) Antifungal samples were prepared by diluting the compounds of the present inventions in RPMI 1640 media to serial concentrations from 0.0625 to 32 μg/ml. As a vehicle, DMSO was contained in a final concentration of 1% (V/V) in the antifungal samples. 0.1 ml of each of the dilutions in series was added to equal volume of each of the fungal inocula.

[2] = test system: Aspergillus niger ATCC 9142; assay: In vitro assay for antifungal activity (MIC90); format: cell-based; settings: duplicate; for MIC90: ATCC9142, RPMI 1640, growth read after 48 hours, read-out: MIC90 (concentration at which 90% of the fungi were inhibited compared to the negative control); for MIC90 (concentration at which 90% of the fungi were inhibited compared to the negative control): RPMI 1640, growth read after 48 hours
Description: as §1, §2

[3] = test system: Candida krusei ATCC 6258; assay: In vitro assay for antifungal activity (MIC90); format: cell-based; settings: duplicate; for MIC90: Pichia kudriavzevii, ATCC6258, RPMI 1640, growth read after 24 hours, read-out: MIC90 (concentration at which 90% of the fungi were inhibited compared to the negative control); for MIC90 (concentration at which 90% of the fungi were inhibited compared to the negative control): RPMI 1640, growth read after 24 hours
Description: as §1, §2

[4] = test system: Candida glabrata ATCC 34138; assay: In vitro assay for antifungal activity (MIC90); format: cell-based; settings: duplicate; for MIC90: Nakaseomyces glabratus, ATCC34138, RPMI 1640, growth read after 24 hours, read-out: MIC90 (concentration at which 90% of the fungi were inhibited compared to the negative control); for MIC90 (concentration at which 90% of the fungi were inhibited compared to the negative control): RPMI 1640, growth read after 24 hours
Description: as §1, §2

[5] = test system: Aspergillus terreus ATCC 28301; assay: In vitro assay for antifungal activity (MIC90); format: cell-based; settings: duplicate; for MIC90: ATCC28301, RPMI 1640, growth read after 48 hours, read-out: MIC90 (concentration at which 90% of the fungi were inhibited compared to the negative control); for MIC90 (concentration at which 90% of the fungi were inhibited compared to the negative control): RPMI 1640, growth read after 48 hours
Description: as §1, §2

[6] = test system: Cryptococcus neoformans ATCC 4065; assay: In vitro assay for antifungal activity (MIC90); format: cell-based; settings: for MIC90: ATCC4065, RPMI 1640, duplicate, read-out: MIC90 (concentration at which 90% of the fungi were inhibited compared to the negative control); for MIC90 (concentration at which 90% of the fungi were inhibited compared to the negative control): RPMI 1640, duplicate
Description: as §1, §2

[7] = test system: Aspergillus flavus ATCC MYA-1004; assay: In vitro assay for antifungal activity (MIC90); format: cell-based; settings: RPMI 1640, growth read after 48 hours, duplicate; for MIC90: read-out: MIC90 (concentration at which 90% of the fungi were inhibited compared to the negative control)
Description: as §1, §2

[8] = test system: Aspergillus fumigatus ATCC MYA-1163; assay: In vitro assay for antifungal activity (MIC90); format: cell-based; settings: RPMI 1640, growth read after 48 hours, duplicate; for MIC90: read-out: MIC90 (concentration at which 90% of the fungi were inhibited compared to the negative control)
Description: as §1, §2

[9] = test system: Candida albicans (ATCC 36082); assay: In vivo assay for antifungal activity (survival of infected mice); settings: ICR mice infected i.v. with Candida albicans ATCC 36082; 20 mg/kg orally once a day for seven days (day 0 to day 6); groups of 10
Description: Candida albicans (ATCC 36082) was grown in YM broth on a rotary shaker (200 rpm, 26° C.) for about 12 hours to a concentration of 2.5×10^7 CFU/ml and used to infect ICR mice at a dose of 0.2 ml/head via caudal veins. Suspensions or solutions of the azole compounds in a 25% beta-hydroxypropyl methylcellulose base were orally administered at a dose of 20 mg/kg to respective infected ICR mice in groups of 10, the condition and body weights of the mice were monitored, and autopsies were finally conducted. For a negative control, the vehicle alone was used while fluconazole was administered to a positive control. The mice were inoculated once with the fungal preparation on the day of commencement of the administration. The test materials of interest and the positive control material were orally administered to the inoculated mice once a day for seven days from day 0 to day 6, with the first oral administration made five hours after the fungal inoculation (day 0). The periods of time for which the infected mice lived were counted.
The number of mice which survived the fungal infection for 21 days following the inoculation was represented as % survival for each test group, and the results are given in Table 11, below. All members of the negative control were dead 8 days after the fungal infection, while all of the groups administered with Compound 50 were dead 18 days after the fungal infection.

[10] = Assay for acute toxicity; format: in vivo; settings: mice; oral administration, to a dose of 1000 mg/kg; observed for two weeks; suspension in 25% beta-hydroxypropyl methylcellulose base or polyethylene glycol 400

Row | Compound | MIC90 [1] | MIC90 [2] | MIC90 [3] | MIC90 [4] | MIC90 [5] | MIC90 [6] | MIC90 [7] | MIC90 [8] | MIC90 (concentration at which 90% of the fungi were inhibited compared to the negative control) [1] | MIC90 (concentration at which 90% of the fungi were inhibited compared to the negative control) [2] | MIC90 (concentration at which 90% of the fungi were inhibited compared to the negative control) [3] | MIC90 (concentration at which 90% of the fungi were inhibited compared to the negative control) [4] | MIC90 (concentration at which 90% of the fungi were inhibited compared to the negative control) [5] | MIC90 (concentration at which 90% of the fungi were inhibited compared to the negative control) [6] | MIC90 (concentration at which 90% of the fungi were inhibited compared to the negative control) [7] | MIC90 (concentration at which 90% of the fungi were inhibited compared to the negative control) [8] | % Survival on Day 21 [9] | acute toxicity: toxic syndromes observed [10]
1 | Cc1nn([C@H](C)[C@](O)(Cn2cncn2)c2ccc(F)cc2F)c2ccc([N+](=O)[O-])cc12 [Example 106, (2R,3R)-2-(2,4-Difluorophenyl)-3-(3-methyl-5-nitro-1H-indazol-1-yl)-1-(1H-1,2,4-triazol-1-yl)butan-2-ol] | 0.031 µg/mL (≈ 0.0724 µM) | 16 µg/mL (≈ 37.3 µM) | 4 µg/mL (≈ 9.34 µM) | 8 µg/mL (≈ 18.7 µM) | 4 µg/mL (≈ 9.34 µM) | 0.5 µg/mL (≈ 1.17 µM) | 8 µg/mL (≈ 18.7 µM) | 8 µg/mL (≈ 18.7 µM) |  |  |  |  |  |  |  |  |  | 
2 | C[C@@H](n1ncc2cc(NCc3ccc(OC(F)(F)F)cc3)ccc21)[C@](O)(Cn1cncn1)c1ccc(F)cc1F [Example 247] |  |  |  |  |  |  |  |  | ≦0.015 μg/ml | 4 µg/mL | 0.5 µg/mL | 8 µg/mL | 2 µg/mL | 0.25 µg/mL | 1 µg/mL | 1 µg/mL |  | 
3 | Cc1c2cc(F)ccc2nn1[C@H](C)[C@](O)(Cn1cncn1)c1ccc(F)cc1F [Example 72] |  |  |  |  |  |  |  |  | 0.031 µg/mL | 8 µg/mL | 8 µg/mL | 8 µg/mL | 4 µg/mL | 1 µg/mL | 8 µg/mL | 4 µg/mL |  | 
4 | CCc1c2cc(F)ccc2nn1[C@H](C)[C@](O)(Cn1cncn1)c1ccc(F)cc1F [Example 100] |  |  |  |  |  |  |  |  | ≦0.015 μg/ml | >16 µg/mL | 4 µg/mL | 8 µg/mL | 16 µg/mL | 0.25 µg/mL | 16 µg/mL | 16 µg/mL |  | 
5 | C[C@@H](n1cc2cc(F)ccc2n1)[C@](O)(Cn1cncn1)c1ccc(F)cc1F [Example 56] |  |  |  |  |  |  |  |  | ≦0.015 μg/ml | 2 µg/mL | 1 µg/mL | 2 µg/mL | 2 µg/mL | 0.125 µg/mL | 2 µg/mL | 0.5 µg/mL |  | 
6 | C[C@@H](n1cc2cc(Br)ccc2n1)[C@](O)(Cn1cncn1)c1ccc(F)cc1F [Example 60] |  |  |  |  |  |  |  |  | ≦0.015 μg/ml | 1 µg/mL | 1 µg/mL | 2 µg/mL | 1 µg/mL | 1 µg/mL | 1 µg/mL | 0.5 µg/mL | 10% | no toxic syndromes
7 | C[C@@H](n1ncc2cc(NCC3CCCCC3)ccc21)[C@](O)(Cn1cncn1)c1ccc(F)cc1F [Example 309] |  |  |  |  |  |  |  |  | ≦0.015 μg/ml | 16 µg/mL | 1 µg/mL | 8 µg/mL | 4 µg/mL | 0.5 µg/mL | 2 µg/mL | 8 µg/mL |  | 
8 | C[C@@H](n1ncc2cc([N+](=O)[O-])ccc21)[C@](O)(Cn1cncn1)c1ccc(F)cc1F [Example 234, (2R,3R)-2-(2,4-difluorophenyl)-3-(5-nitro-1H-indazol-1-yl)-1-(1H-1,2,4-triazol-1-yl)butan-2-ol] | ≤ 0.015 µg/mL | 2 µg/mL (≈ 4.83 µM) | 0.5 µg/mL (≈ 1.21 µM) | 4 µg/mL (≈ 9.65 µM) | 2 µg/mL (≈ 4.83 µM) | 0.125 µg/mL (≈ 0.302 µM) | 1 µg/mL (≈ 2.41 µM) | 2 µg/mL (≈ 4.83 µM) |  |  |  |  |  |  |  |  | 40% | no toxic syndromes
9 | OC(Cn1cncn1)(Cn1cncn1)c1ccc(F)cc1F [Fluconazole, fluconazole, reference compound] | 1 µg/mL (≈ 3.27 µM) | > 128 µg/mL | > 8 µg/mL | > 32 µg/mL | > 128 µg/mL | 8 µg/mL (≈ 26.1 µM) | > 128 µg/mL | > 128 µg/mL |  |  |  |  |  |  |  |  | 20% | 
10 | C[C@@H](n1ncc2cc(NCc3ccc(F)cc3F)ccc21)[C@](O)(Cn1cncn1)c1ccc(F)cc1F [Example 250] |  |  |  |  |  |  |  |  | ≦0.015 μg/ml | 4 µg/mL | 0.5 µg/mL | 8 µg/mL | 2 µg/mL | 0.25 µg/mL | 0.5 µg/mL | 1 µg/mL |  | 
11 | C[C@@H](n1ncc2cc(NCc3ccc(F)cc3)ccc21)[C@](O)(Cn1cncn1)c1ccc(F)cc1F [Example 244] |  |  |  |  |  |  |  |  | ≦0.015 μg/ml | 2 µg/mL | 0.5 µg/mL | 8 µg/mL | 1 µg/mL | 0.25 µg/mL | 0.5 µg/mL | 0.5 µg/mL |  | 

Source: patent US7812045B2, “Antifungal triazole derivatives” (Daewoong Pharmaceutical Co., Ltd., priority 2005, dated 2010)
